Data set [1] concerns hippocampal neurons. It is filed as cell-based, mice. Conditions: hippocampal neurons infected with rAAV. The text has this: E: Analysis of apoptosis of hippocampal cultures uninfected or infected with the indicated rAAVs. Values are expressed as percentage of the total number of cells analyzed.
The test system of data set [2] is hippocampal cultures. Nature of the data set: MEA recordings of spontaneous network activity. In kind it is cell-based, mice. The following applies: infected cultures versus rAAV-shSCR or rAAV-emptymC. The procedure: MEA recordings were done as known in the art. From DIV7 to DIV13, recordings of spontaneous network activity were acquired for 5 min once per day.

Data set [3] relates to VEGFD. Nature of the data set: qRT-PCR analysis of VEGFD expression in hippocampal neurons. Conditions: hippocampal neurons infected with rAAV. It is filed as cell-based, mice. The procedure: (§1) Total RNA was isolated at DIV10 to DIV13 from hippocampal primary neuron cultures or isolated brain tissues with Rneasy Mini Kit (Qiagen, Hilden, Germany) including an optional Dnase I treatment at room temperature for 15 min according to manufacturer's instructions (Qiagen). 1.2 μg of extracted RNA was reverse transcribed into first strand cDNA using High Capacity cDNA Reverse Transcription kit (Applied Biosystems, Foster City, Calif.).
(§2) Quantitative reverse transcriptase PCR (qRT-PCR) was done on an ABI7300 thermal cycler using Universal qRT-PCR master mix with TaqMan Gene Expression Assays for the indicated genes (Applied Biosystems). The following TaqMan Gene Expression Assays were used in this study: Gusb (Mm00446953_m1), cFos (Mm00487425_m1), VEGFD (Mm00438965_m1), VEGFC (Mm01202432_m1), VEGF (Mm01281449_m1), VEGFR3 (Mm01292618_m1), beta-actin (Mm00607939_s1), beta-2 microglobulin (Mm00437762_m1), CBP (Mm01342435_m1), p38 MAPK alpha (Mm00442497_m1), p38 MAPK beta (Mm00440955_m1). Expression of target genes was normalized against the expression of Gusb as endogenous control gene. Data were derived from at least 5 independent experiments.

For data set [4], the system named is VEGFC. Nature of the data set: qRT-PCR analysis of VEGFC expression in hippocampal neurons. In kind it is cell-based, mice. Conditions: hippocampal neurons infected with rAAV. On the procedure: as §1, §2
Data set [5] has as its system CA1 pyramidal neurons. In words: Golgi staining-based morphometric analysis of CA1 neurons after stereotaxic rAAV delivery. In kind it is in vivo, C57BL/6 mice. Conditions: CA1 basal dendrites, 2.5 weeks after viral gene delivery. On the procedure: rAAVs were delivered by stereotaxic injection into the right dorsal hippocampus of 2 months old male C57BL/6 mice. For the Golgi staining-based morphometric analysis, viral particles were unilaterally injected over a period of 20 min at the following coordinates relative to Bregma: anteroposterior, −2.1 mm; mediolateral, −1.4 mm; dorsoventral, −1.4 to −1.8 mm from the skull surface. For behavior experiments mice were injected bilaterally.
For 3D Sholl Analysis, total dendritic length and spine morphology were calculated using Object-Image freeware software with a specific set of macros (written by Dr. E. Ruthazer, McGill University, Quebec). Briefly, a z-Stack acquisition was imported, calibrated in Object-Image and manually traced. Total dendritic length was then computed. For Sholl analysis, the shell interval was set at 5 μm. All analyses were performed blind. In all in vitro experiments, for each condition, a minimum of 12 neurons from three independent preparations was analyzed. For the Golgi staining quantifications of 20 neurons for each condition from 4 different injected animals per viral construct were traced and analyzed.
Golgi impregnation was performed using a Rapid Golgi Stain Kit (FD Neuro Technologies) according to the manufacturer's protocol. […]

Data set [6] concerns VEGFD. In words: Immunoblot analysis of VEGFD expression in hippocampal neurons. It is filed as cell-based, mice. The following applies: hippocampal neurons infected with rAAV. The text has this: C: Immunoblot analysis of VEGFD expression in uninfected hippocampal neurons and in hippocampal neurons infected with the indicated rAAVs. Tubulin was used for loading control. Neurons infected with rAAV-emptymC, rAAV-shVEGFD and rAAV-shSCR were detected by DsRed immunostaining (see above).
Mouse monoclonal antibody to tubulin (Sigma); mouse monoclonal NeuN antibody (Chemicon); mouse monoclonal anti-phospho-p38 MAP kinase antibody (BD); rabbit polyclonal antibodies to the HA tag, anti-VEGFD antibodies, anti-VEGFR3 (Santa Cruz); rabbit polyclonal antibody to phosphor-CREB (Upstate-Millipore); rabbit polyclonal antibody to phosphor-CaMKII (Promega); rabbit polyclonal antibodies to phosphor-MSK1, phosphor-ATF2, phosphor-ERK, phosphor-Akt, phosphor-MKK4, phosphor-JNK, phosphor-p70, phosphor-GSKα/β (Cell Signaling). Rabbit polyclonal antibodies to DsRed (Clontech). AlexaFluor 488-, AlexaFluor 594-, and AlexaFluor 633-labled secondary antibodies were from Molecular Probes (Eugene, Oreg., USA).

With “shVEGFD: shRNA targeting mouse VEGFD mRNA (GGGCTTCAGGAGCGAACAT; SEQ ID NO: 1), expressed from rAAV vector or plasmid with U6 promoter”, in data set [1], the cell death result is listed as “no increase in cell death”. Further, in data set [2], the spike frequencies result is reported as “reduced”. Moreover, the “VEGFD mRNA levels” value in data set [3] was “reduced VEGFD mRNA levels”. In data set [4], the “Expression of VEGFC” value is listed as “not affected”. The “total length of dendrites and their complexity in vivo” value in data set [5] is “reduced both the total length of dendrites and their complexity”. Further, in data set [6], the “VEGFD protein expression (immunoblot)” value was “blocked VEGFD protein expression”.
